Data reported in patent US20260007683A1, “PHARMACEUTICAL COMPOSITIONS COMPRISING HIV INTEGRASE INHIBITORS” (Gilead Sciences, Inc., priority 2024, published 2026).

Experiments:
[1] = Hygroscopicity by dynamic vapor sorption (DVS); format: physicochemical; details: for change of solid form post DVS experiment: after DVS cycle 5-95% RH at 25° C.; for water absorbed (dynamic vapor sorption): up to 95% RH at 25° C.
Experimental: Hygroscopicity was studied using dynamic vapor sorption (DVS, TA Q5000 SA, TA Instruments, New Castle, DE or DVS, DVS Intrinsic, Surface Measurement Systems, London, UK). A sample (1-20 mg) was placed in an aluminum DVS pan and loaded on the sample side of the twin pan balance. The water sorption and desorption were studied as a function of relative humidity (RH) at 25° C. In 10% RH increments, the relative humidity was increased from 5% RH to 95% RH and then decreased back to 5%. […] Data analysis was performed using Universal Analysis 2000 Version 4.7A (TA Instruments, New Castle, DE) for TA DVS runs and Microsoft Excel for SMS DVS runs.

[2] = Drying of solid form under ambient conditions (form conversion); format: physicochemical
From the text: Compound of Formula I, Form II is a metastable methanol solvated phase. It was isolated when compound of Formula I, Form I was slurried in methanol for about 60 days and identified by x-ray of the wet cake.

Compound | change of solid form post DVS experiment [1] | water absorbed (dynamic vapor sorption) [1] | form conversion upon drying [2]
O=C(NCc1c(F)cc(F)cc1F)c1cn2c(c(O)c1=O)C(=O)N1CCCC[C@H]2C1 [Compound of Formula I, Form III, (7S)-12-hydroxy-1,11-dioxo-N-(2,4,6-trifluorobenzyl)-1,4,5,6,7,11-hexahydro-3H-2,7-methanopyrido[1,2-a][1,4]diazonine-10-carboxamide] | not have changed form | about 0.87% | –
O=C(NCc1c(F)cc(F)cc1F)c1cn2c(c(O)c1=O)C(=O)N1CCCC[C@H]2C1 [Compound of Formula I, Form I, (7S)-12-hydroxy-1,11-dioxo-N-(2,4,6-trifluorobenzyl)-1,4,5,6,7,11-hexahydro-3H-2,7-methanopyrido[1,2-a][1,4]diazonine-10-carboxamide] | not have changed form | about 0.097% | –
O=C(NCc1c(F)cc(F)cc1F)c1cn2c(c(O)c1=O)C(=O)N1CCCC[C@H]2C1 [Compound of Formula I, Form II, (7S)-12-hydroxy-1,11-dioxo-N-(2,4,6-trifluorobenzyl)-1,4,5,6,7,11-hexahydro-3H-2,7-methanopyrido[1,2-a][1,4]diazonine-10-carboxamide] | – | – | convert to compound of Formula I, Form III
O=C(NCc1c(F)cc(F)cc1F)c1cn2c(c(O)c1=O)C(=O)N1CCCC[C@H]2C1 [Compound of Formula I, Form IV, (7S)-12-hydroxy-1,11-dioxo-N-(2,4,6-trifluorobenzyl)-1,4,5,6,7,11-hexahydro-3H-2,7-methanopyrido[1,2-a][1,4]diazonine-10-carboxamide] | not have changed form | about 3.5% | –
